# Results from ChEMBL document CHEMBL5728513, “Substituted isoindolin-1-ones and 2,3-dihydro-1h-pyrrolo[3,4-c]pyridin-1-ones as hpk1 antagonists” (2021).
# Target: Mitogen-activated protein kinase kinase kinase kinase 1 (Homo sapiens, UniProt Q92918)
# Experiment: Biochemical Enzyme Assay: HPK1 biochemical enzyme assay: HPK1 enzyme inhibition was measured using a microfluidic mobility shift assay. […] Test compounds were titrated in ten point curves (top final assay concentration […]), and preincubated with enzyme/substrate mix for 30 min prior to initiation of the reaction by addition of ATP (1 mM final concentration) and substrate (1 Î¼M final concentration; Carna Biosciences) diluted in assay buffer supplemented by MgCl2 (final assay concentration of 5 mM). Following 60 min incubation at RT, the reaction was terminated by addition of 60 µl/well termination buffer (Carna Biosciences) and signal determination using a Caliper EZ Reader (Perkin Elmer, UK).
# Sequence of Mitogen-activated protein kinase kinase kinase kinase 1 (Q92918 whole entry): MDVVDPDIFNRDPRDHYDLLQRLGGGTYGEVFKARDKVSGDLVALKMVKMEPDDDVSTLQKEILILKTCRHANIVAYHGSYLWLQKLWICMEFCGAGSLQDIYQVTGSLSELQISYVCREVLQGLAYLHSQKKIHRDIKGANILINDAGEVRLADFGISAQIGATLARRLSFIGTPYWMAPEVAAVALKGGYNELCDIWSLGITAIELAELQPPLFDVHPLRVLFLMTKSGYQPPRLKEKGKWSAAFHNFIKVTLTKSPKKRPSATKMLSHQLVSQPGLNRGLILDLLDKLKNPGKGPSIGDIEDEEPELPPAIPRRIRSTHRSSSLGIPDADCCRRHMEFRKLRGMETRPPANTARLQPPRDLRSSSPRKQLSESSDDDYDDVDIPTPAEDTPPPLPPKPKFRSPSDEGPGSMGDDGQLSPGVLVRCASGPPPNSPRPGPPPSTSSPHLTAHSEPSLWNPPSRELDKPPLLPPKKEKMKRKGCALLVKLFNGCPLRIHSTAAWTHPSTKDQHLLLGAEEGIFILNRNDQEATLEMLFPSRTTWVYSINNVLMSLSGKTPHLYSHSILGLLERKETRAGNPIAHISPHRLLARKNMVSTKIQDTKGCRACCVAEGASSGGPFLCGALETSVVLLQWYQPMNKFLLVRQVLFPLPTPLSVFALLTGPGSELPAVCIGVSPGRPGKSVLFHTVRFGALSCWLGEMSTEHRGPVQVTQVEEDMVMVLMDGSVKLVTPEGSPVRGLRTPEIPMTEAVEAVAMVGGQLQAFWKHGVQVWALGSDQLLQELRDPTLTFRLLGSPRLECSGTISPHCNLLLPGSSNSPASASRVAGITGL
row,IC50,Compound
1,< 100 nM,CCN(C)Cc1nc(Nc2ccc(-c3cnc4cc(F)ccn34)c3c2C(=O)NC3)ccc1[C@@H]1CCOC1
2,< 100 nM,CO[C@H]1CCC(c2ccc(Nc3ccc(-c4cnc5cc(F)ccn45)c4c3C(=O)NC4)nc2CN(C)C)C1 (stereo partly drawn)
3,in the range around 550 nM,CN(C)Cc1cc(Nc2ccc(-c3cnc4cc(F)ccn34)c3c2C(=O)NC3)ncc1C1(O)CCOCC1
